Values joined by “and” are separate entries in the source; they are usually repeats but may differ in a detail not shown here. Equal entries are not always repeated. Toxic doses and inconclusive results are not listed. Cut-off read from the data, not from the text of the source: active = T/C of 150% or more; inactive = T/C below 125%.
System: L1210 leukemia ip in BDF1 mice, survival T/C
Experiment: NCI In Vivo Anticancer Drug Screen. Data for tumor model L1210 Leukemia (intraperitoneal) in B6D2F1 (BDF1) mice
Settings: endpoint: mean survival time, higher = longer survival
Procedure, shortened: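 Transplantable tumor model; survival measured in treated vs vehicle control mice. Value = treated/control.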

[1] = dose: 25.0 mg/kg/injection, schedule: Q01DX009 (ip), vehicle: saline with Tween-80
[2] = dose: 50.0 mg/kg/injection, schedule: Q01DX009 (ip), vehicle: saline with Tween-80
[3] = dose: 75.0 mg/kg/injection, schedule: Q01DX001 (ip), vehicle: other
[4] = dose: 100.0 mg/kg/injection, schedule: Q04DX003 (ip), vehicle: saline
[5] = dose: 200.0 mg/kg/injection, schedule: Q04DX003 (ip), vehicle: saline
[6] = dose: 400.0 mg/kg/injection, schedule: Q04DX003 (ip), vehicle: saline
[7] = dose: 50.0 mg/kg/injection, schedule: Q04DX003 (ip), vehicle: saline
[8] = dose: 100.0 mg/kg/injection, schedule: Q01DX009 (ip), vehicle: saline
[9] = dose: 200.0 mg/kg/injection, schedule: Q01DX009 (ip), vehicle: saline
[10] = dose: 400.0 mg/kg/injection, schedule: Q01DX009 (ip), vehicle: saline
[11] = dose: 100.0 mg/kg/injection, schedule: Q01DX001 (ip), vehicle: saline
[12] = dose: 200.0 mg/kg/injection, schedule: Q01DX001 (ip), vehicle: saline
[13] = dose: 400.0 mg/kg/injection, schedule: Q01DX001 (ip), vehicle: saline
[14] = dose: 100.0 mg/kg/injection, schedule: Q01DX001 (ip), vehicle: Klucel (hydroxypropylcellulose) (HPC)
[15] = dose: 100.0 mg/kg/injection, schedule: Q01DX009 (ip), vehicle: Klucel (hydroxypropylcellulose) (HPC)
[16] = dose: 100.0 mg/kg/injection, schedule: Q04DX003 (ip), vehicle: Klucel (hydroxypropylcellulose) (HPC)

Measured: T/C

O=NO.O=N[O-].O=N[O-].[Co+3].[NH-]CC[N-]CCO.[NH-]CC[N-]CCO
inactive: dose: 25.0 mg/kg/injection, schedule: Q01DX009 (ip), vehicle: water 107 % of control | dose: 25.0 mg/kg/injection, schedule: Q04DX003 (ip), vehicle: water 100 % of control | dose: 50.0 mg/kg/injection, schedule: Q01DX009 (ip), vehicle: water 106 % of control and 107 % of control | dose: 50.0 mg/kg/injection, schedule: Q04DX003 (ip), vehicle: water 103 % of control | dose: 100.0 mg/kg/injection, schedule: Q01DX009 (ip), vehicle: water 111 % of control | dose: 100.0 mg/kg/injection, schedule: Q04DX003 (ip), vehicle: water 98 % of control and 101 % of control

O=C(C[n+]1ccccc1/C=N/O)c1ccccc1
inactive: dose: 12.5 mg/kg/injection, schedule: Q01DX009 (ip), vehicle: saline with Tween-80 101 % of control | [1] 99 % of control | [2] 101 % of control | [3] 97 % of control

CCCC[As](=O)(O)CC(C)C
inactive: dose: 6.25 mg/kg/injection, schedule: Q01DX009 (ip), vehicle: saline 93 % of control | dose: 12.5 mg/kg/injection, schedule: Q01DX009 (ip), vehicle: saline 101 % of control

Cc1ccc([N+](=O)[O-])cc1NC(=O)NCCO
inactive: [4] 106 % of control | [5] 106 % of control | [6] 103 % of control

CC1COCC(C)OCO1 (stereo unspecified)
inactive: dose: 50.0 mg/kg/injection, schedule: Q01DX009 (ip), vehicle: acetone 102 % of control | dose: 100.0 mg/kg/injection, schedule: Q01DX009 (ip), vehicle: acetone 102 % of control | dose: 100.0 mg/kg/injection, schedule: Q04DX003 (ip), vehicle: acetone 103 % of control | dose: 200.0 mg/kg/injection, schedule: Q01DX009 (ip), vehicle: acetone 101 % of control | dose: 200.0 mg/kg/injection, schedule: Q04DX003 (ip), vehicle: acetone 94 % of control | dose: 400.0 mg/kg/injection, schedule: Q04DX003 (ip), vehicle: acetone 114 % of control

O/N=C(\C=N\O)c1ccccc1
inactive: dose: 100.0 mg/kg/injection, schedule: Q01DX009 (sc), vehicle: olive oil, sesame oil, peanut oil 109 % of control | dose: 100.0 mg/kg/injection, schedule: Q04DX003 (sc), vehicle: olive oil, sesame oil, peanut oil 98 % of control | dose: 200.0 mg/kg/injection, schedule: Q01DX009 (sc), vehicle: olive oil, sesame oil, peanut oil 112 % of control | dose: 200.0 mg/kg/injection, schedule: Q04DX003 (sc), vehicle: olive oil, sesame oil, peanut oil 101 % of control | dose: 400.0 mg/kg/injection, schedule: Q01DX009 (sc), vehicle: olive oil, sesame oil, peanut oil 98 % of control

O=C(O)C1(C(=O)O)CCOCC1
inactive: [7] 93 % of control | [8] 104 % of control | [4] 98 % of control | [9] 102 % of control | [5] 104 % of control | [10] 96 % of control | [6] 103 % of control

CCOC(=O)C(CCCOC(=O)c1cc([N+](=O)[O-])cc([N+](=O)[O-])c1)C(=O)OCC
inactive: [11] 94 % of control | [8] 101 % of control | [12] 98 % of control | [9] 101 % of control | [13] 91 % of control | [10] 95 % of control

CC(O)C(C)(C)CO (stereo unspecified)
inactive: [8] 94 % of control | [9] 95 % of control | [10] 90 % of control

CCC1(c2ccccc2)C(=O)NC(=S)N(C)C1=O (stereo unspecified)
inactive: [3] 95 % of control | dose: 150.0 mg/kg/injection, schedule: Q01DX001 (ip), vehicle: other 96 % of control

Nc1cccc2[nH]cnc12
inactive: [8] 98 % of control | [4] 106 % of control | [9] 111 % of control | [5] 104 % of control | [10] 93 % of control | [6] 101 % of control

CC(=O)c1coc(=O)cc1O
inactive: dose: 25.0 mg/kg/injection, schedule: Q01DX009 (ip), vehicle: Klucel (hydroxypropylcellulose) (HPC) 102 % of control | dose: 25.0 mg/kg/injection, schedule: Q04DX003 (ip), vehicle: Klucel (hydroxypropylcellulose) (HPC) 97 % of control | dose: 50.0 mg/kg/injection, schedule: Q01DX009 (ip), vehicle: Klucel (hydroxypropylcellulose) (HPC) 98 % of control | dose: 50.0 mg/kg/injection, schedule: Q04DX003 (ip), vehicle: Klucel (hydroxypropylcellulose) (HPC) 97 % of control | [14] 103 % of control | [15] 98 % of control | [16] 100 % of control

NC(=S)Cc1ccccc1
inactive: [14] 91 % of control | dose: 200.0 mg/kg/injection, schedule: Q01DX001 (ip), vehicle: Klucel (hydroxypropylcellulose) (HPC) 87 % of control | dose: 400.0 mg/kg/injection, schedule: Q01DX001 (ip), vehicle: Klucel (hydroxypropylcellulose) (HPC) 100 % of control

CCC(=O)Oc1ccc(OCc2ccccc2)cc1
inactive: [15] 95 % of control | [16] 95 % of control | dose: 200.0 mg/kg/injection, schedule: Q01DX009 (ip), vehicle: Klucel (hydroxypropylcellulose) (HPC) 97 % of control | dose: 200.0 mg/kg/injection, schedule: Q04DX003 (ip), vehicle: Klucel (hydroxypropylcellulose) (HPC) 98 % of control | dose: 400.0 mg/kg/injection, schedule: Q01DX009 (ip), vehicle: Klucel (hydroxypropylcellulose) (HPC) 98 % of control | dose: 400.0 mg/kg/injection, schedule: Q04DX003 (ip), vehicle: Klucel (hydroxypropylcellulose) (HPC) 95 % of control

NC(Cc1cc(Br)c(O)c(Br)c1)C(=O)O (stereo unspecified)
inactive: [11] 97 % of control | [8] 90 % of control | [4] 103 % of control | [12] 97 % of control | [9] 109 % of control | [5] 98 % of control | [13] 91 % of control | [10] 93 % of control | [6] 97 % of control

CCC(=O)Nc1ccccc1Cl
inactive: dose: 100.0 mg/kg/injection, schedule: Q01DX009 (ip), vehicle: saline with Tween-80 97 % of control | dose: 200.0 mg/kg/injection, schedule: Q01DX009 (ip), vehicle: saline with Tween-80 98 % of control | dose: 400.0 mg/kg/injection, schedule: Q01DX009 (ip), vehicle: saline with Tween-80 101 % of control

CC(C)c1nccn1Cc1ccccc1
inactive: dose: 25.0 mg/kg/injection, schedule: Q01DX001 (ip), vehicle: saline 97 % of control | dose: 25.0 mg/kg/injection, schedule: Q01DX009 (ip), vehicle: saline 105 % of control and 118 % of control | dose: 25.0 mg/kg/injection, schedule: Q04DX002 (ip), vehicle: saline 100 % of control and 101 % of control and 90 % of control | dose: 25.0 mg/kg/injection, schedule: Q04DX003 (ip), vehicle: saline 100 % of control | dose: 50.0 mg/kg/injection, schedule: Q01DX001 (ip), vehicle: saline 97 % of control | dose: 50.0 mg/kg/injection, schedule: Q01DX009 (ip), vehicle: saline 100 % of control and 102 % of control | [7] 92 % of control | dose: 75.0 mg/kg/injection, schedule: Q04DX002 (ip), vehicle: saline 106 % of control | [11] 112 % of control | [8] 100 % of control and 89 % of control

CC(=O)Nc1ccc(C(=O)N=C(C2CCCC2)N2CCCC2)cc1
inactive: [11] 96 % of control | [12] 100 % of control | [13] 105 % of control

NCC(OCCCc1ccccc1)C(Cl)(Cl)Cl (stereo unspecified)
inactive: dose: 12.5 mg/kg/injection, schedule: Q04DX003 (ip), vehicle: saline with Tween-80 105 % of control | [1] 105 % of control | dose: 25.0 mg/kg/injection, schedule: Q04DX003 (ip), vehicle: saline with Tween-80 105 % of control | [2] 113 % of control | dose: 50.0 mg/kg/injection, schedule: Q04DX003 (ip), vehicle: saline with Tween-80 100 % of control

Source: PubChem BioAssay AID248 (DTP/NCI, 2004)
